The record followed here is patent US20240279338A1, “Combination Treatment of Cancer” (Ares Trading S.A., priority 2021, published 2024).

One assay has as its system 4T1 cells. Briefly: CD73hi adenosine-rich 4T1 syngeneic tumor model, tumor growth. The following applies: 4T1, female BALB/c mice; Day 13 post treatment initiation; Compound A 300 mg/kg po bid; bintrafusp alfa 24.6 mg/kg iv days 0, 3, 6. Format: in vivo. The method, then: Female BALB/c mice were inoculated with 5×10^4 4T1 cells into the right mammary fat pad and were treated with Compound A (300 mg/kg po, bid), bintrafusp alfa (24.6 mg/kg iv, days 0, 3, 6), Compound A+bintrafusp alfa, when average tumor volume reached approximately 60 mm^3. Vehicle (po, bid) and isotype control antibody injections (20 mg/kg iv, days 0, 3, 6) were used as controls. (A) Average tumor volumes with SEM, and (B) individual tumor volumes are presented. Tumor volume data were analyzed using two-way ANOVA followed by Tukey's multiple comparison test.
To determine whether combined treatment with the dual A2A/A2B receptor inhibitor “Compound A” ((S)-7-Oxa-2-aza-spiro[4.5]decane-2-carboxylic acid [7-(3,6-dihydro-2H-pyran-4-yl)-4-methoxy-thiazolo[4,5-c]pyridin-2-yl]-amide) and bintrafusp alfa can inhibit tumor growth in either CD73^hi or CD73^low models, tumor growth was monitored in […] syngeneic tumor models. Animals were inoculated with either CD73^hi tumor cells (4T1, E0771, or EMT6) or with CD73^low MC38, H22 or MBT2 tumor cells. For all tumor models, animals were treated with either 1) vehicle and isotype, 2) Compound A and isotype, 3) vehicle and bintrafusp alfa, or 4) Compound A and bintrafusp alfa. […]

For assay [1], the system named is human T cells co-cultured with MDA-MB-231 tumor cells. Briefly: Rescue of IFNγ secretion from EBV-specific human T cells co-cultured with MDA-MB-231 tumor cells in presence of NECA. It counts as cell-based. The following applies: Compound A 100 nM; bintrafusp alfa 1 μg/ml; 10 μM NECA; 74 hours of co-culture; T cells:tumor cells 0.5:1; ELISA. The method, then: Then 10 μM NECA was added to the corresponding groups and 1.3×10^4 of T cells in 100 μl volume were transferred per well of 96-well flat bottom plate with 2.6×10^4 cells/well of MDA-MB-231 tumor cells pre-loaded with EBV peptide (30 ng/ml, […], 21st Century) in 100 μl of RPM11640 media, supplemented with 10% FBS. The final ratio for T cells:MDA-MB-231 tumor cells=0.5:1. Cell culture supernatants were collected after 74 hours of co-culture, and IFNγ levels were measured using human IFNγ ELISA Kit (R&D Systems) according to manufacturer instructions. The percentage of IFNγ secretion rescue was calculated using following formula: 100%−(IFNγ in samples treated with NECA and Compound A alone or combination with bintrafusp alfa minus IFNγ in control sample)[…](IFNγ in samples with NECA minus IFNγ in control sample)*100%. Representative graph with the results shown as average of three samples per treatment group±SEM. P-values are calculated using one-way ANOVA Tukey comparison test. […]
Briefly, MDA-MB-231 tumor cells were seeded to the flat bottom 96-well plate at 2.6×10^4 cells/well (in 100 μl of RPMI1640 media, supplemented with 10% FBS) and loaded with EBV peptide (30 ng/ml, […], 21st Century). […] Cell culture supernatants were collected after 74 hours of co-culture, and IFNγ levels were measured using human IFNγ ELISA Kit (R&D Systems) according to manufacturer instructions. […]
Background: ELISA stands for enzyme-linked immunosorbent assay.

For a further assay, the system named is CD73 KO 4T1 tumor cells. Briefly: CD73-KO 4T1 syngeneic tumor model, tumor growth. It counts as in vivo. The following applies: CD73 KO 4T1, female BALB/c mice; Day 18 post treatment initiation; Compound A 300 mg/kg po bid; bintrafusp alfa 24.6 mg/kg iv days 0, 3, 6. The procedure: Female BALB/c mice were inoculated with 1×10^5 CD73 KO 4T1 tumor cells into the right mammary fat pad and were treated with Compound A (300 mg/kg po, bid), bintrafusp alfa (24.6 mg/kg iv, days 0, 3, 6), Compound A+bintrafusp alfa, when average tumor volume reached approximately 60 mm^3. Vehicle (po, bid) and isotype control antibody injections (20 mg/kg iv, days 0, 3, 6) were used as controls. (A) Average tumor volumes with SEM, and (B) individual tumor volumes are presented. Tumor volume data were analyzed using two-way ANOVA followed by Tukey's multiple comparison test.
Further to the results of Example 3, tumor growth inhibition by the combined treatment with the dual A2A/A2B receptor inhibitor “Compound A” ((S)-7-Oxa-2-aza-spiro[4.5]decane-2-carboxylic acid [7-(3,6-dihydro-2H-pyran-4-yl)-4-methoxy-thiazolo[4,5-c]pyridin-2-yl]-amide) and bintrafusp alfa was examined in a syngeneic 4T1 tumor model, in which CD73 was knocked-out using GenCRISPR™ gene editing technology (GenScript USA, Inc). Efficacy of CD73 knockout in 4T1 tumor cells was confirmed by flow cytometry. Female BALB/c mice were inoculated into the right mammary fat pad with 1×10^5 CD73 KO 4T1 tumor cells and were treated with Compound A (300 mg/kg po, bid), bintrafusp alfa (24.6 mg/kg iv, days 0, 3, 6), Compound A+bintrafusp alfa, when average tumor volume reached approximately 60 mm^3. […]

As to “bintrafusp alfa: anti-PD-L1:TGFβRII fusion protein, CAS 1918149-01-5; human IgG1 antibody against PD-L1 fused to extracellular domain of human TGF-β receptor II”, the “tumor growth inhibition, T/C” value turned out to be 86.2% in the assay on 4T1 cells and 75.4% in the assay on CD73 KO 4T1 tumor cells. Besides, in assay [1], the “rescue of IFNγ secretion” value is about 24%.

Take `COc1ncc(C2=CCOCC2)c2sc(NC(=O)N3CC[C@@]4(CCCOC4)C3)nc12` [Compound A, (S)-7-Oxa-2-aza-spiro[4.5]decane-2-carboxylic acid [7-(3,6-dihydro-2H-pyran-4-yl)-4-methoxy-thiazolo[4,5-c]pyridin-2-yl]-amide]: the “tumor growth inhibition, T/C” value in the assay on 4T1 cells was found to be 68.5%; with CD73 KO 4T1 tumor cells, 108%. Moreover, the “rescue of IFNγ secretion” value in assay [1] is given as “approx. 71%”.
